Laboratory results published in patent US11109593B2, “Isoxazolin-5-one derivative and herbicide containing same as active ingredient” (HOKKO CHEMICAL INDUSTRY CO., LTD., priority 2017, dated 2021).

Test system: Echinochloa crus-galli
Experiment: Test Example 4: herbicidal effect test by treatment of leave and stem in dry field farming (seven days after seeding)
Format: in vivo
Details: 120 g/10a active ingredient; emulsion sprayed seven days after seeding; evaluated 14 days after treatment
Protocol: (§1) This test was conducted in a double system per one agent solution concentration area, and the herbicidal rates (%) were determined by the following equation (Math. 1) on 14 days after the treatment with the agents. Herbicidal Rate (%)={1-(Average Dry Weight (g) of Plant of Treated Area)/(Average Dry Weight (g) of Plant of Untreated Area)}×100 [Math. 1]
(§2) Herbicidal Effect Test by Treatment of Leave and Stem in Dry Field Farming
(§3) Pots with a size of 36 cm^2 were filled with a dry field farming soil (alluvium). The soil of the top layer of 1 cm and seeds of weeds, namely southern crabgrass, Echinochloa crus-galli, Chenopodium album and Amaranthus viridis, 20 seeds each, were evenly mixed, and the top layer was gently pressed. Emulsions prepared using the compounds in Table 6 below according to Formulation Example 5 were diluted with water seven days after seeding, and the water-diluted agent solutions were sprayed to the soil surfaces at a ratio of 100 liters per 10 ares. The converted amount of the applied active ingredient corresponded to 120 g per 10 ares. The herbicidal effects were evaluated by the same standard as that in Test Example 1 on 14 days after the treatment with the agents. […] The compound numbers in Table 6 are the same as those in Table 1 and Table 2 above.

| SMILES | herbicidal effect (herbicidal rate), Echinochloa crus-galli |
| --- | --- |
| CCC(C)Cn1oc(=O)c(Cc2ccccc2NS(=O)(=O)C(F)(F)F)c1C (stereo not drawn) [Compound 1-112] | 90% |
| CCC(c1ccccc1)n1oc(=O)c(Cc2ccccc2N(S(=O)(=O)C(F)(F)F)S(=O)(=O)C(F)(F)F)c1C (stereo not drawn) [Compound 1-1038] | 90% |
| Cc1c(Cc2ccccc2N(C(=O)OC(C)C)S(=O)(=O)C(F)(F)F)c(=O)on1C(C)c1ccccc1 (stereo not drawn) [Compound 1-653] | 90% |

Test system: Chenopodium album
Experiment: as above
Format: in vivo
Details: 120 g/10a active ingredient; emulsion sprayed seven days after seeding; evaluated 14 days after treatment
Protocol: as §1, §2, §3

| SMILES | herbicidal effect (herbicidal rate), Chenopodium album |
| --- | --- |
| CCC(C)Cn1oc(=O)c(Cc2ccccc2NS(=O)(=O)C(F)(F)F)c1C (stereo not drawn) [Compound 1-112] | 0% |
| CCC(c1ccccc1)n1oc(=O)c(Cc2ccccc2N(S(=O)(=O)C(F)(F)F)S(=O)(=O)C(F)(F)F)c1C (stereo not drawn) [Compound 1-1038] | 40% |
| Cc1c(Cc2ccccc2N(C(=O)OC(C)C)S(=O)(=O)C(F)(F)F)c(=O)on1C(C)c1ccccc1 (stereo not drawn) [Compound 1-653] | 40% |

Test system: southern crabgrass
Experiment: as above
Format: in vivo
Details: 120 g/10a active ingredient; emulsion sprayed seven days after seeding; evaluated 14 days after treatment
Protocol: as §1, §2, §3

| SMILES | herbicidal effect (herbicidal rate), southern crabgrass |
| --- | --- |
| CCC(C)Cn1oc(=O)c(Cc2ccccc2NS(=O)(=O)C(F)(F)F)c1C (stereo not drawn) [Compound 1-112] | 50% |
| CCC(c1ccccc1)n1oc(=O)c(Cc2ccccc2N(S(=O)(=O)C(F)(F)F)S(=O)(=O)C(F)(F)F)c1C (stereo not drawn) [Compound 1-1038] | 60% |
| Cc1c(Cc2ccccc2N(C(=O)OC(C)C)S(=O)(=O)C(F)(F)F)c(=O)on1C(C)c1ccccc1 (stereo not drawn) [Compound 1-653] | 90% |

Test system: Amaranthus viridis
Experiment: as above
Format: in vivo
Details: 120 g/10a active ingredient; emulsion sprayed seven days after seeding; evaluated 14 days after treatment
Protocol: as §1, §2, §3

| SMILES | herbicidal effect (herbicidal rate), Amaranthus viridis |
| --- | --- |
| CCC(C)Cn1oc(=O)c(Cc2ccccc2NS(=O)(=O)C(F)(F)F)c1C (stereo not drawn) [Compound 1-112] | 40% |
| CCC(c1ccccc1)n1oc(=O)c(Cc2ccccc2N(S(=O)(=O)C(F)(F)F)S(=O)(=O)C(F)(F)F)c1C (stereo not drawn) [Compound 1-1038] | 40% |
| Cc1c(Cc2ccccc2N(C(=O)OC(C)C)S(=O)(=O)C(F)(F)F)c(=O)on1C(C)c1ccccc1 (stereo not drawn) [Compound 1-653] | 40% |

Test system: Echinochloa crus-galli
Experiment: Test Example 1: herbicidal effect test by treatment of rice paddy soil (immediately after seeding)
Format: in vivo
Details: 120 g/10a active ingredient, dry weight vs untreated area, 14 days after treatment
How it was run: (§4)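 Puddled, fertilized (N:P:K=17:17:17) paddy soil in Wagner pots; seeds sown 0–1 cm deep, flooded to about 3 cm. Emulsifiable formulations diluted in water and dropped into the water immediately after seeding at 120 g active ingredient per 10 ares; greenhouse. Herbicidal rate from dry weight vs untreated at 14 days.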

| SMILES | Herbicidal rate (%) Echinochloa crus-galli |
| --- | --- |
| CCC(C)Cn1oc(=O)c(Cc2ccccc2NS(=O)(=O)C(F)(F)F)c1C (stereo not drawn) [Compound 1-112] | 100% |
| CCC(c1ccccc1)n1oc(=O)c(Cc2ccccc2N(S(=O)(=O)C(F)(F)F)S(=O)(=O)C(F)(F)F)c1C (stereo not drawn) [Compound 1-1038] | 90% |
| Cc1c(Cc2ccccc2N(C(=O)OC(C)C)S(=O)(=O)C(F)(F)F)c(=O)on1C(C)c1ccccc1 (stereo not drawn) [Compound 1-653] | 90% |

Test system: broad leaf weeds (Lindernia pyxidaria and Monochoria vaginalis)
Experiment: as above
Format: in vivo
Details: Lindernia pyxidaria, 120 g/10a active ingredient, dry weight vs untreated area, 14 days after treatment
How it was run: as §4

| SMILES | Herbicidal rate (%) Lindernia pyxidaria |
| --- | --- |
| CCC(C)Cn1oc(=O)c(Cc2ccccc2NS(=O)(=O)C(F)(F)F)c1C (stereo not drawn) [Compound 1-112] | 90% |
| CCC(c1ccccc1)n1oc(=O)c(Cc2ccccc2N(S(=O)(=O)C(F)(F)F)S(=O)(=O)C(F)(F)F)c1C (stereo not drawn) [Compound 1-1038] | 90% |
| Cc1c(Cc2ccccc2N(C(=O)OC(C)C)S(=O)(=O)C(F)(F)F)c(=O)on1C(C)c1ccccc1 (stereo not drawn) [Compound 1-653] | 90% |

Same assay, conditions: Monochoria vaginalis, 120 g/10a active ingredient, dry weight vs untreated area, 14 days after treatment

| SMILES | Herbicidal rate (%) Monochoria vaginalis |
| --- | --- |
| CCC(C)Cn1oc(=O)c(Cc2ccccc2NS(=O)(=O)C(F)(F)F)c1C (stereo not drawn) [Compound 1-112] | 90% |
| CCC(c1ccccc1)n1oc(=O)c(Cc2ccccc2N(S(=O)(=O)C(F)(F)F)S(=O)(=O)C(F)(F)F)c1C (stereo not drawn) [Compound 1-1038] | 90% |
| Cc1c(Cc2ccccc2N(C(=O)OC(C)C)S(=O)(=O)C(F)(F)F)c(=O)on1C(C)c1ccccc1 (stereo not drawn) [Compound 1-653] | 90% |

Test system: Scirpus juncoides
Experiment: as above
Format: in vivo
Details: 120 g/10a active ingredient, dry weight vs untreated area, 14 days after treatment
How it was run: as §4

| SMILES | Herbicidal rate (%) Scirpus juncoides |
| --- | --- |
| CCC(C)Cn1oc(=O)c(Cc2ccccc2NS(=O)(=O)C(F)(F)F)c1C (stereo not drawn) [Compound 1-112] | 90% |
| CCC(c1ccccc1)n1oc(=O)c(Cc2ccccc2N(S(=O)(=O)C(F)(F)F)S(=O)(=O)C(F)(F)F)c1C (stereo not drawn) [Compound 1-1038] | 90% |
| Cc1c(Cc2ccccc2N(C(=O)OC(C)C)S(=O)(=O)C(F)(F)F)c(=O)on1C(C)c1ccccc1 (stereo not drawn) [Compound 1-653] | 90% |

Test system: Echinochloa crus-galli
Experiment: Test Example 3: herbicidal effect test by treatment of dry field farming soil (one day after seeding)
Format: in vivo
Details: 120 g/10a active ingredient, evaluated 14 days after treatment
How it was run: (§5)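 Seeds (20 each) mixed into top 1 cm of alluvium in pots, surface pressed. One day later, diluted emulsion sprayed onto soil, 100 L/10 a, 120 g a.i./10 a. Dry weight at 14 d vs untreated gave % herbicidal rate; n=2.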

| SMILES | herbicidal rate, Echinochloa crus-galli |
| --- | --- |
| CCC(C)Cn1oc(=O)c(Cc2ccccc2NS(=O)(=O)C(F)(F)F)c1C (stereo not drawn) [Compound 1-112] | 90% |
| CCC(c1ccccc1)n1oc(=O)c(Cc2ccccc2N(S(=O)(=O)C(F)(F)F)S(=O)(=O)C(F)(F)F)c1C (stereo not drawn) [Compound 1-1038] | 90% |
| Cc1c(Cc2ccccc2N(C(=O)OC(C)C)S(=O)(=O)C(F)(F)F)c(=O)on1C(C)c1ccccc1 (stereo not drawn) [Compound 1-653] | 90% |

Test system: Chenopodium album
Experiment: as above
Format: in vivo
Details: 120 g/10a active ingredient, evaluated 14 days after treatment
How it was run: as §5

| SMILES | herbicidal rate, Chenopodium album |
| --- | --- |
| CCC(C)Cn1oc(=O)c(Cc2ccccc2NS(=O)(=O)C(F)(F)F)c1C (stereo not drawn) [Compound 1-112] | 80% |
| CCC(c1ccccc1)n1oc(=O)c(Cc2ccccc2N(S(=O)(=O)C(F)(F)F)S(=O)(=O)C(F)(F)F)c1C (stereo not drawn) [Compound 1-1038] | 0% |
| Cc1c(Cc2ccccc2N(C(=O)OC(C)C)S(=O)(=O)C(F)(F)F)c(=O)on1C(C)c1ccccc1 (stereo not drawn) [Compound 1-653] | 90% |

Test system: southern crabgrass
Experiment: as above
Format: in vivo
Details: 120 g/10a active ingredient, evaluated 14 days after treatment
How it was run: as §5

| SMILES | herbicidal rate, southern crabgrass |
| --- | --- |
| CCC(C)Cn1oc(=O)c(Cc2ccccc2NS(=O)(=O)C(F)(F)F)c1C (stereo not drawn) [Compound 1-112] | 90% |
| CCC(c1ccccc1)n1oc(=O)c(Cc2ccccc2N(S(=O)(=O)C(F)(F)F)S(=O)(=O)C(F)(F)F)c1C (stereo not drawn) [Compound 1-1038] | 90% |
| Cc1c(Cc2ccccc2N(C(=O)OC(C)C)S(=O)(=O)C(F)(F)F)c(=O)on1C(C)c1ccccc1 (stereo not drawn) [Compound 1-653] | 90% |

Test system: Amaranthus viridis
Experiment: as above
Format: in vivo
Details: 120 g/10a active ingredient, evaluated 14 days after treatment
How it was run: as §5

| SMILES | herbicidal rate, Amaranthus viridis |
| --- | --- |
| CCC(C)Cn1oc(=O)c(Cc2ccccc2NS(=O)(=O)C(F)(F)F)c1C (stereo not drawn) [Compound 1-112] | 60% |
| CCC(c1ccccc1)n1oc(=O)c(Cc2ccccc2N(S(=O)(=O)C(F)(F)F)S(=O)(=O)C(F)(F)F)c1C (stereo not drawn) [Compound 1-1038] | 0% |
| Cc1c(Cc2ccccc2N(C(=O)OC(C)C)S(=O)(=O)C(F)(F)F)c(=O)on1C(C)c1ccccc1 (stereo not drawn) [Compound 1-653] | 90% |

Test system: Echinochloa crus-galli
Experiment: Test Example 2: herbicidal effect test by treatment during growing period in paddy rice cultivation (seven days after seeding)
Format: in vivo
Details: 120 g/10a active ingredient, assessed 14 days after treatment, dry weight vs untreated area
How it was run: (§6)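 Herbicidal rate = (1 − treated/untreated mean dry weight) × 100, scored 14 days after application, two replicates per rate. Treatment: diluted emulsion dropped onto paddy water seven days after sowing, 120 g active ingredient per 10 ares, in a glass greenhouse.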

| SMILES | Herbicidal rate (%) Echinochloa crus-galli |
| --- | --- |
| CCC(C)Cn1oc(=O)c(Cc2ccccc2NS(=O)(=O)C(F)(F)F)c1C (stereo not drawn) [Compound 1-112] | 90% |
| CCC(c1ccccc1)n1oc(=O)c(Cc2ccccc2N(S(=O)(=O)C(F)(F)F)S(=O)(=O)C(F)(F)F)c1C (stereo not drawn) [Compound 1-1038] | 90% |
| Cc1c(Cc2ccccc2N(C(=O)OC(C)C)S(=O)(=O)C(F)(F)F)c(=O)on1C(C)c1ccccc1 (stereo not drawn) [Compound 1-653] | 90% |

Test system: broad leaf weeds (Lindernia pyxidaria and Monochoria vaginalis)
Experiment: as above
Format: in vivo
Details: Lindernia pyxidaria, 120 g/10a active ingredient, assessed 14 days after treatment, dry weight vs untreated area
How it was run: as §6

| SMILES | Herbicidal rate (%) Lindernia pyxidaria |
| --- | --- |
| CCC(C)Cn1oc(=O)c(Cc2ccccc2NS(=O)(=O)C(F)(F)F)c1C (stereo not drawn) [Compound 1-112] | 80% |
| CCC(c1ccccc1)n1oc(=O)c(Cc2ccccc2N(S(=O)(=O)C(F)(F)F)S(=O)(=O)C(F)(F)F)c1C (stereo not drawn) [Compound 1-1038] | 60% |
| Cc1c(Cc2ccccc2N(C(=O)OC(C)C)S(=O)(=O)C(F)(F)F)c(=O)on1C(C)c1ccccc1 (stereo not drawn) [Compound 1-653] | 90% |

Same assay, conditions: Monochoria vaginalis, 120 g/10a active ingredient, assessed 14 days after treatment, dry weight vs untreated area

| SMILES | Herbicidal rate (%) Monochoria vaginalis |
| --- | --- |
| CCC(C)Cn1oc(=O)c(Cc2ccccc2NS(=O)(=O)C(F)(F)F)c1C (stereo not drawn) [Compound 1-112] | 80% |
| CCC(c1ccccc1)n1oc(=O)c(Cc2ccccc2N(S(=O)(=O)C(F)(F)F)S(=O)(=O)C(F)(F)F)c1C (stereo not drawn) [Compound 1-1038] | 80% |
| Cc1c(Cc2ccccc2N(C(=O)OC(C)C)S(=O)(=O)C(F)(F)F)c(=O)on1C(C)c1ccccc1 (stereo not drawn) [Compound 1-653] | 90% |

Test system: Scirpus juncoides
Experiment: as above
Format: in vivo
Details: 120 g/10a active ingredient, assessed 14 days after treatment, dry weight vs untreated area
How it was run: as §6

| SMILES | Herbicidal rate (%) Scirpus juncoides |
| --- | --- |
| CCC(C)Cn1oc(=O)c(Cc2ccccc2NS(=O)(=O)C(F)(F)F)c1C (stereo not drawn) [Compound 1-112] | 90% |
| CCC(c1ccccc1)n1oc(=O)c(Cc2ccccc2N(S(=O)(=O)C(F)(F)F)S(=O)(=O)C(F)(F)F)c1C (stereo not drawn) [Compound 1-1038] | 90% |
| Cc1c(Cc2ccccc2N(C(=O)OC(C)C)S(=O)(=O)C(F)(F)F)c(=O)on1C(C)c1ccccc1 (stereo not drawn) [Compound 1-653] | 90% |
